Data set [1] deals with T1, human D2R/β-arrestin (Homo sapiens (Human), UniProt P14416). In words: cell-based. The settings on record: cAMP Antagonist, CHO-K1 cell line expressing human D2R/β-arrestin; quinpirole used as agonist.
For data set [2], the target named is T1, human D2R/β-arrestin. As to the kind of experiment: Gi/cAMP agonist assay (Lance Ultra cAMP, Forskolin). In kind it is cell-based. The settings on record: CHO-K1 cell line expressing human D2R/β-arrestin. The gist of the method: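 Read-out was Lance Ultra competitive TR-FRET (Eu-cAMP tracer plus ULight-anti-cAMP) following forskolin-induced cAMP production. Before forskolin stimulation, compounds were pin-transferred onto the seeded cells for 10 min at 37 °C.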

The target of data set [3] is T1, human D2R/β-arrestin. In words: β-Arrestin agonist assay (PathHunter). In kind it is cell-based. The settings on record: CHO-K1 cell line expressing human D2R/β-arrestin. Summed up: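 Readout follows addition of Buffer:Emerald II:Galactor-Star reagent (19:5:1) to agonist-treated plates, measured as luminescence or fluorescence.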
Data set [4] concerns the target T1, human D2R/β-arrestin. In words: cell-based. The settings on record: β-arrestin Antagonist, CHO-K1 cell line expressing human D2R/β-arrestin; quinpirole used as agonist.
Data set [5] is described as follows: Microsomal stability, mouse.
Data set [6] has as its target T1, human D2R/β-arrestin. The settings on record: read-out: β-arrestin Antagonist; CHO-K1 cell line expressing human D2R/β-arrestin; quinpirole used as agonist.

Like-named read-outs stand apart in the source and are kept apart here. Bounds are passed on as bounds.

T1 sequence (P14416 whole entry): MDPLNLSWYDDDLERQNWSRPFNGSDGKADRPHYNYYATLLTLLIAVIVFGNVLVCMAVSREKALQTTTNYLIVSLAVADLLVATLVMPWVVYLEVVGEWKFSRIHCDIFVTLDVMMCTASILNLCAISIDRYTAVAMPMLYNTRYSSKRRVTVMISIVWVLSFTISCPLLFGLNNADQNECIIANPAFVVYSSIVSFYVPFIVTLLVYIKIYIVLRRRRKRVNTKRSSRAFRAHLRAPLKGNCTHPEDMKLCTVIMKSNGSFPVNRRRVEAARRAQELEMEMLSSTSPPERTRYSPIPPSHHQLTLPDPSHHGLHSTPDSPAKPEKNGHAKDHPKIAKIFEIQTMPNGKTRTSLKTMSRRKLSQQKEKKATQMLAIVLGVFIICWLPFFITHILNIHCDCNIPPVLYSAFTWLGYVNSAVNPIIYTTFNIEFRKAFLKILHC

`CC(C)N(CC1CCN(CCOc2ccc(F)cc2)CC1)C(c1ccc(Cl)cc1)c1ccccn1` (stereo not shown) [Compound 135, N-((4-chlorophenyl)(pyridin-2-yl)methyl)-N-((1-(2-(4-fluorophenoxy)ethyl)piperidin-4-yl)methyl)propan-2-amine]: the results for the IC50 on human D2R/β-arrestin [1] and on human D2R/β-arrestin [4] were 100 to 1000 nM and 1000 to 10000 nM, respectively. For the same compound, the EC50 at human D2R/β-arrestin [2] and at human D2R/β-arrestin [3] was greater than 30000 nM in each case. For the same compound, the “Microsomal Stability: % remaining after 60 minutes” value (from here on “Microsomal Stability: % remaining”) in data set [5] was “m2%”.
Consider `O=C(NC(c1ccc(Cl)cc1)c1ccccn1)C1CCN(CCOc2cccc(Cl)c2)CC1` (single isomer, unassigned) [Compound 1b, 1-(2-(3-chlorophenoxy)ethyl)-N-((4-chlorophenyl)(pyridin-2-yl)methyl)piperidine-4-carboxamide], for which the IC50 on human D2R/β-arrestin [1] is greater than 30000 nM; on human D2R/β-arrestin [6] it was 1000 to 10000 nM. The EC50 (commonly the concentration giving half of the maximal effect) on human D2R/β-arrestin [2] is less than 100 nM; at human D2R/β-arrestin [3], 1000 to 10000 nM.
In the case of `Clc1ccc(C(OCC2CCN(CCOc3ccccc3)CC2)c2ccccn2)cc1` (stereo not shown) [Compound 99, 2-((4-chlorophenyl)((1-(2-phenoxyethyl)piperidin-4-yl)methoxy)methyl)pyridine], the results for the IC50 at human D2R/β-arrestin [1] and on human D2R/β-arrestin [4] were greater than 30000 nM and 1000 to 10000 nM, respectively. For the same compound, the EC50 at human D2R/β-arrestin [2] was 100 to 1000 nM; at human D2R/β-arrestin [3], greater than 30000 nM. Moreover, in data set [5], the “Microsomal Stability: % remaining” value is “m7%”.
For `O=C(NC(c1cccc(OC(F)(F)F)c1)c1ccccn1)C1CCN(CCOc2ccccc2F)CC1` (stereo not shown) [Compound 93, 1-(2-(2-fluorophenoxy)ethyl)-N-(pyridin-2-yl(3-(trifluoromethoxy)phenyl)methyl)piperidine-4-carboxamide], the IC50 on human D2R/β-arrestin [1] is greater than 30000 nM; at human D2R/β-arrestin [4], 100 to 1000 nM. In addition, the EC50 at human D2R/β-arrestin [2] is less than 100 nM; on human D2R/β-arrestin [3] it was greater than 30000 nM. Further, in data set [5], the “Microsomal Stability: % remaining” value was “m12%”.
As for `O=C(NC(c1ccc(Cl)cc1)c1ccncc1F)C1CCN(CCOc2ccccc2F)CC1` (single isomer, unassigned) [Compound 91b, N-((4-chlorophenyl)(3-fluoropyridin-4-yl)methyl)-1-(2-(2-fluorophenoxy)ethyl)piperidine-4-carboxamide], the IC50 on human D2R/β-arrestin [1] and on human D2R/β-arrestin [4] was 100 to 1000 nM throughout. The EC50 at human D2R/β-arrestin [2] and at human D2R/β-arrestin [3] was greater than 30000 nM each time. Further, the “Microsomal Stability: % remaining” value in data set [5] is recorded as “m1%”.
`CN(CC1CCN(CCOc2ccccc2F)CC1)C(c1ccc2c(c1)OCO2)c1ccccn1` (single isomer, unassigned) [Compound 138b, 1-(benzo[d][1,3]dioxol-5-yl)-N-((1-(2-(2-fluorophenoxy)ethyl)piperidin-4-yl)methyl)-N-methyl-1-(pyridin-2-yl)methanamine]: the IC50 at human D2R/β-arrestin [1] is less than 100 nM; at human D2R/β-arrestin [6] it was 100 to 1000 nM. Moreover, the half-maximal effective concentration (EC50) at human D2R/β-arrestin [2] is less than 100 nM; on human D2R/β-arrestin [3] it was greater than 30000 nM.
As for `O=C(NC(c1ccc(Cl)cc1)c1ccccc1F)C1CCN(CCOc2ccccc2F)CC1` (stereo not shown) [Compound 96, N-((4-chlorophenyl)(2-fluorophenyl)methyl)-1-(2-(2-fluorophenoxy)ethyl) piperidine-4-carboxamide], the IC50 at human D2R/β-arrestin [1] and on human D2R/β-arrestin [4] was 100 to 1000 nM throughout. Also, the EC50 on human D2R/β-arrestin [2] is 100 to 1000 nM; at human D2R/β-arrestin [3], greater than 30000 nM. Moreover, in data set [5], the “Microsomal Stability: % remaining” value is reported as “m26%”.
In the case of `CC(C1CCN(CCOc2ccccc2)CC1)N(C)C(c1ccc(Cl)cc1)c1ccccn1` (single isomer, unassigned) [Compound 97b, N-((4-chlorophenyl)(pyridin-2-yl)methyl)-N-methyl-1-(1-(2-phenoxyethyl)piperidin-4-yl)ethan-1-amine], the IC50 at human D2R/β-arrestin [1] and at human D2R/β-arrestin [4] was 100 to 1000 nM throughout. The EC50 on human D2R/β-arrestin [2] is 100 to 1000 nM; at human D2R/β-arrestin [3], greater than 30000 nM. Further, the “Microsomal Stability: % remaining” value in data set [5] was “m3%”.
As for `COc1cccc(C(NC(=O)C2CCN(CCOc3ccccc3)CC2)c2ccccc2)c1` (stereo not shown) [Compound 46], the EC50 on human D2R/β-arrestin [3] was greater than 30000 nM. The IC50 on human D2R/β-arrestin [6] lay within 1000 to 10000 nM.
Take `Clc1ccc(C(c2ccccn2)N2CCC3(CCN(CCOc4ccccc4)CC3)C2)cc1` (single isomer, unassigned) [Compound 105a, 2-((4-chlorophenyl)(pyridin-2-yl)methyl)-8-(2-phenoxyethyl)-2,8-diazaspiro[4.5]decane]: the IC50 on human D2R/β-arrestin [1] is greater than 30000 nM; on human D2R/β-arrestin [4] it was 100 to 1000 nM. Also, the EC50 on human D2R/β-arrestin [2] is less than 100 nM; at human D2R/β-arrestin [3] it was 100 to 1000 nM. In addition, the “Microsomal Stability: % remaining” value in data set [5] was “m1%”.
The compound `CC1(CNC(c2ccc(F)cc2)c2ccccn2)CCN(CCOc2ccccc2C(F)(F)F)CC1` (single isomer, unassigned) [Compound 101b, 1-(4-fluorophenyl)-N-((4-methyl-1-(2-(2-(trifluoromethyl)phenoxy)ethyl)piperidin-4-yl)methyl)-1-(pyridin-2-yl)methanamine] returned a 50% effective concentration (EC50) at human D2R/β-arrestin [3] greater than 30000 nM. The IC50 on human D2R/β-arrestin [6] was 100 to 1000 nM.
As to `Fc1ccc(F)c(OCCN2CCC(CNC(c3ccc(Cl)cc3)c3ccccn3)CC2)c1` (stereo not shown) [Compound 89, 1-(4-chlorophenyl)-N-((1-(2-(2,5-difluorophenoxy)ethyl)piperidin-4-yl)methyl)-1-(pyridin-2-yl)methanamine], the IC50 at human D2R/β-arrestin [1] and on human D2R/β-arrestin [4] was 100 to 1000 nM throughout. Moreover, the EC50 at human D2R/β-arrestin [2] and at human D2R/β-arrestin [3] was greater than 30000 nM in each case.
As for `CC(C1CCN(CCOc2ccccc2)CC1)N(C)C(c1ccc(Cl)cc1)c1ccccn1` (stereo not shown) [Compound 97, N-((4-chlorophenyl)(pyridin-2-yl)methyl)-N-methyl-1-(1-(2-phenoxyethyl)piperidin-4-yl)ethan-1-amine], the IC50 on human D2R/β-arrestin [1] and on human D2R/β-arrestin [4] was less than 100 nM throughout. Also, the EC50 on human D2R/β-arrestin [2] and at human D2R/β-arrestin [3] was greater than 30000 nM throughout.
`O=C(NC(c1ccc(Cl)cc1)c1ccccc1F)C1CCN(CCOc2cc(F)ccc2F)CC1` (stereo not shown) [Compound 123, N-((4-chlorophenyl)(2-fluorophenyl)methyl)-1-(2-(2,5-difluorophenoxy)ethyl) piperidine-4-carboxamide]: the IC50 on human D2R/β-arrestin [1] was greater than 30000 nM; on human D2R/β-arrestin [4], 100 to 1000 nM. The EC50 at human D2R/β-arrestin [2] is less than 100 nM; on human D2R/β-arrestin [3] it was greater than 30000 nM.
Take `O=C(NC(c1cccc(OC(F)(F)F)c1)c1ccccn1)C1CCN(CCOc2ccccc2F)CC1` (single isomer, unassigned) [Compound 93a, 1-(2-(2-fluorophenoxy)ethyl)-N-(pyridin-2-yl(3-(trifluoromethoxy)phenyl)methyl)piperidine-4-carboxamide]: the results for the IC50 at human D2R/β-arrestin [1] and on human D2R/β-arrestin [4] were 100 to 1000 nM and 1000 to 10000 nM, respectively. Besides, the EC50 was 10000 to 30000 nM on human D2R/β-arrestin [2] and greater than 30000 nM on human D2R/β-arrestin [3].
For the compound `COc1ccc(C(NC(=O)C2CCN(CCOc3ccccc3)CC2)c2ccccn2)cc1` (stereo not shown) [Compound 34], the IC50 on human D2R/β-arrestin [1] is greater than 30000 nM; at human D2R/β-arrestin [4], 1000 to 10000 nM. Also, the EC50 on human D2R/β-arrestin [2] was 100 to 1000 nM; at human D2R/β-arrestin [3] it was greater than 30000 nM.
As for `CN(CC1CCN(CCOc2ccc(C(F)(F)F)cc2)CC1)C(c1ccc(Cl)cc1)c1ccccn1` (stereo not shown) [Compound 137, 1-(4-chlorophenyl)-N-methyl-1-(pyridin-2-yl)-N-((1-(2-(4-(trifluoromethyl)phenoxy)ethyl)piperidin-4-yl)methyl)methanamine], the IC50 at human D2R/β-arrestin [1] and on human D2R/β-arrestin [4] was 1000 to 10000 nM each time. Besides, the EC50 on human D2R/β-arrestin [2] and on human D2R/β-arrestin [3] was greater than 30000 nM each time. In addition, in data set [5], the “Microsomal Stability: % remaining” value is given as “m1%”.
With `Clc1ccc(C(c2ccccn2)N2CC3(CCN(CCOc4ccccc4)CC3)C2)cc1` (stereo not shown) [Compound 104, 2-((4-chlorophenyl)(pyridin-2-yl)methyl)-7-(2-phenoxyethyl)-2,7-diazaspiro[3.5]nonane], the IC50 on human D2R/β-arrestin [1] was greater than 30000 nM; at human D2R/β-arrestin [4] it was 10000 to 30000 nM. Besides, the EC50 at human D2R/β-arrestin [2] was 1000 to 10000 nM; at human D2R/β-arrestin [3] it was greater than 30000 nM. The “Microsomal Stability: % remaining” value in data set [5] is “m45%”.
In the case of `O=C(NC(c1ccc(Cl)cc1)c1ccccn1)C1CCN(CCCCOc2ccccc2)CC1` (stereo not shown) [Compound 110], the IC50 on human D2R/β-arrestin [1] fell in the range of 100 to 1000 nM; at human D2R/β-arrestin [4] it was 1000 to 10000 nM. Besides, the EC50 at human D2R/β-arrestin [2] and at human D2R/β-arrestin [3] was greater than 30000 nM in each case.
As for `O=C(NC(c1ccc(Cl)cc1)c1ccccn1)C1CCN(CCOc2ccccc2)CC1` (single isomer, unassigned) [Compound 63b, N-((4-chlorophenyl)(pyridin-2-yl)methyl)-1-(2-phenoxyethyl)piperidine-4-carboxamide], the IC50 on human D2R/β-arrestin [1] and on human D2R/β-arrestin [4] was 100 to 1000 nM each time. Also, the EC50 on human D2R/β-arrestin [2] and at human D2R/β-arrestin [3] was greater than 30000 nM throughout.
For the compound `O=C(NC(c1ccc(Cl)cc1)c1ccccn1)C1CCN(CCOc2ccc(F)cc2F)CC1` (single isomer, unassigned) [Compound 115a, N-((4-chlorophenyl)(pyridin-2-yl)methyl)-1-(2-(2,4-difluorophenoxy)ethyl)piperidine-4-carboxamide], the results for the IC50 at human D2R/β-arrestin [1] and at human D2R/β-arrestin [4] were greater than 30000 nM and 1000 to 10000 nM, respectively. Further, the EC50 at human D2R/β-arrestin [2] was 100 to 1000 nM; on human D2R/β-arrestin [3], greater than 30000 nM.
As for `CN(C(=O)C1CCN(CCOc2ccccc2)CC1)C(c1ccc(Cl)cc1)c1ccccn1` (stereo not shown) [Compound 51, N((4-chlorophenyl)(pyridin-2-yl)methyl)-N-methyl-1-(2-phenoxyethyl) piperidine-4-carboxamide], the IC50 on human D2R/β-arrestin [1] is greater than 30000 nM; on human D2R/β-arrestin [4] it was 1000 to 10000 nM. For the same compound, the concentration giving a half-maximal response (EC50) on human D2R/β-arrestin [2] was 100 to 1000 nM; at human D2R/β-arrestin [3] it was greater than 30000 nM. The “Microsomal Stability: % remaining” value in data set [5] was “m0%”.
